Measured values: PubChem BioAssay AID248 (DTP/NCI, 2004)
Inconclusive results and toxic doses are left out. Cut-off read from the data, not from the text of the source: active = T/C of 150% or more; inactive = T/C below 125%.

Tested on: L1210 leukemia ip in BDF1 mice, survival T/C
Test: NCI In Vivo Anticancer Drug Screen. Data for tumor model L1210 Leukemia (intraperitoneal) in B6D2F1 (BDF1) mice
Settings: endpoint: mean survival time, higher = longer survival
How it was run: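 In this screen, tumor-bearing mice given compound are compared to those given vehicle, and their survival values are reported as a treated-to-control quotient.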

[1] = dose: 50.0 mg/kg/injection, schedule: Q01DX001 (ip), vehicle: carboxymethylcellulose (CMC)
[2] = dose: 100.0 mg/kg/injection, schedule: Q01DX001 (ip), vehicle: carboxymethylcellulose (CMC)
[3] = dose: 200.0 mg/kg/injection, schedule: Q01DX001 (ip), vehicle: carboxymethylcellulose (CMC)
[4] = dose: 400.0 mg/kg/injection, schedule: Q01DX001 (ip), vehicle: carboxymethylcellulose (CMC)
[5] = dose: 100.0 mg/kg/injection, schedule: Q01DX Z (ip), vehicle: saline
[6] = dose: 200.0 mg/kg/injection, schedule: Q01DX Z (ip), vehicle: saline
[7] = dose: 15.0 mg/kg/injection, schedule: Q01DX015 (ip), vehicle: saline
[8] = dose: 30.0 mg/kg/injection, schedule: Q01DX015 (ip), vehicle: saline
[9] = dose: 60.0 mg/kg/injection, schedule: Q01DX015 (ip), vehicle: saline
[10] = dose: 120.0 mg/kg/injection, schedule: Q01DX015 (ip), vehicle: saline
[11] = dose: 100.0 mg/kg/injection, schedule: Q01DX001 (ip), vehicle: saline
[12] = dose: 200.0 mg/kg/injection, schedule: Q01DX001 (ip), vehicle: saline
[13] = dose: 400.0 mg/kg/injection, schedule: Q01DX001 (ip), vehicle: saline
[14] = dose: 100.0 mg/kg/injection, schedule: Q04DX003 (ip), vehicle: Klucel (hydroxypropylcellulose) (HPC)
[15] = dose: 200.0 mg/kg/injection, schedule: Q04DX003 (ip), vehicle: Klucel (hydroxypropylcellulose) (HPC)
[16] = dose: 400.0 mg/kg/injection, schedule: Q04DX003 (ip), vehicle: Klucel (hydroxypropylcellulose) (HPC)

Measured: T/C

Cc1ccc2c(c1)C(=O)c1ccccc1C2=O
inactive: [1] 95 % of control | [2] 101 % of control | dose: 100.0 mg/kg/injection, schedule: Q04DX002 (ip), vehicle: Klucel (hydroxypropylcellulose) (HPC) 100 % of control | [3] 91 % of control | dose: 200.0 mg/kg/injection, schedule: Q04DX002 (ip), vehicle: Klucel (hydroxypropylcellulose) (HPC) 107 % of control | [4] 95 % of control | dose: 400.0 mg/kg/injection, schedule: Q04DX002 (ip), vehicle: Klucel (hydroxypropylcellulose) (HPC) 96 % of control

CC(C)(C)C(=O)CC(=O)C(C)(C)C.CC(C)(C)C(=O)CC(=O)C(C)(C)C.CC(C)(C)C(=O)CC(=O)C(C)(C)C.CC(C)(C)C(=O)CC(=O)C(C)(C)C.[Th]
inactive: dose: 100.0 mg/kg/injection, schedule: Q04DX003 (ip), vehicle: saline with Tween-80 96 % of control | dose: 200.0 mg/kg/injection, schedule: Q04DX003 (ip), vehicle: saline with Tween-80 98 % of control | dose: 400.0 mg/kg/injection, schedule: Q04DX003 (ip), vehicle: saline with Tween-80 90 % of control

CN(N=O)c1ccc(/C=C/c2ccnc3ccccc23)cc1
inactive: [1] 98 % of control | [2] 93 % of control | [3] 93 % of control | [4] 91 % of control

CC1CN=C(N)NC1=O (centres undefined)
inactive: [5] 104 % of control | [6] 119 % of control

CC1=CCC(C/C=N/N=C/CC2CC=C(C)C2(C)C)C1(C)C (centres undefined)
inactive: dose: 100.0 mg/kg/injection, schedule: Q01DX009 (sc), vehicle: olive oil, sesame oil, peanut oil 100 % of control | dose: 100.0 mg/kg/injection, schedule: Q04DX003 (sc), vehicle: olive oil, sesame oil, peanut oil 97 % of control | dose: 200.0 mg/kg/injection, schedule: Q01DX009 (sc), vehicle: olive oil, sesame oil, peanut oil 100 % of control | dose: 200.0 mg/kg/injection, schedule: Q04DX003 (sc), vehicle: olive oil, sesame oil, peanut oil 101 % of control | dose: 400.0 mg/kg/injection, schedule: Q01DX009 (sc), vehicle: olive oil, sesame oil, peanut oil 98 % of control | dose: 400.0 mg/kg/injection, schedule: Q04DX003 (sc), vehicle: olive oil, sesame oil, peanut oil 106 % of control

CC[N+](CC)(CC)CCCCCCCC[N+](CC)(CC)CC
inactive: dose: 0.78 mg/kg/injection, schedule: Q01DX009 (ip), vehicle: water 110 % of control | dose: 0.78 mg/kg/injection, schedule: Q04DX003 (ip), vehicle: saline 107 % of control | dose: 1.56 mg/kg/injection, schedule: Q01DX009 (ip), vehicle: water 111 % of control | dose: 1.56 mg/kg/injection, schedule: Q04DX003 (ip), vehicle: saline 104 % of control

CC1CCC2(CC1)CCN(CCCN(C)C)CC2
inactive: [7] 102 % of control | [8] 102 % of control | [9] 100 % of control | [10] 104 % of control | dose: 200.0 mg/kg/injection, schedule: Q01DX015 (ip), vehicle: saline 107 % of control

NC1(C(=O)O)C2CC3CC(C2)CC1C3 (centres undefined)
inactive: dose: 50.0 mg/kg/injection, schedule: Q01DX009 (ip), vehicle: other 100 % of control | dose: 100.0 mg/kg/injection, schedule: Q01DX009 (ip), vehicle: other 105 % of control | dose: 100.0 mg/kg/injection, schedule: Q04DX003 (ip), vehicle: alcohol 96 % of control | dose: 200.0 mg/kg/injection, schedule: Q01DX009 (ip), vehicle: other 92 % of control | dose: 200.0 mg/kg/injection, schedule: Q04DX003 (ip), vehicle: alcohol 95 % of control

O=S(=O)(F)/C=C/c1ccccc1
inactive: [7] 96 % of control | [8] 96 % of control | [9] 100 % of control | [10] 96 % of control

CC(Cc1ccccc1)Nc1ccccc1 (centres undefined)
inactive: dose: 50.0 mg/kg/injection, schedule: Q01DX001 (ip), vehicle: saline 93 % of control | [11] 100 % of control | [12] 93 % of control | [13] 93 % of control

C=C(C)C(=O)O (tested in a mixture with another compound)
inactive: [5] 105 % of control | [6] 89 % of control

O=C1c2ccccc2C(=O)N1CNc1ccccn1
inactive: dose: 100.0 mg/kg/injection, schedule: Q04DX002 (ip), vehicle: saline with Tween-80 96 % of control | dose: 200.0 mg/kg/injection, schedule: Q04DX002 (ip), vehicle: saline with Tween-80 93 % of control | dose: 400.0 mg/kg/injection, schedule: Q04DX002 (ip), vehicle: saline with Tween-80 100 % of control

CCCCCCCCCOCC(O)COc1ccccc1[N+](=O)[O-] (centres undefined)
inactive: dose: 100.0 mg/kg/injection, schedule: Q04DX003 (ip), vehicle: saline sonified 113 % of control | dose: 200.0 mg/kg/injection, schedule: Q04DX003 (ip), vehicle: saline sonified 95 % of control | dose: 400.0 mg/kg/injection, schedule: Q04DX003 (ip), vehicle: saline sonified 98 % of control

CCOC1(OCC)C(Cl)=C(Cl)C(Cl)=C1Cl
inactive: dose: 25.0 mg/kg/injection, schedule: Q01DX005 (ip), vehicle: Klucel (hydroxypropylcellulose) (HPC) 108 % of control | dose: 25.0 mg/kg/injection, schedule: Q01DX009 (ip), vehicle: Klucel (hydroxypropylcellulose) (HPC) 110 % of control | dose: 25.0 mg/kg/injection, schedule: Q04DX002 (ip), vehicle: Klucel (hydroxypropylcellulose) (HPC) 104 % of control | dose: 50.0 mg/kg/injection, schedule: Q01DX005 (ip), vehicle: Klucel (hydroxypropylcellulose) (HPC) 102 % of control | dose: 50.0 mg/kg/injection, schedule: Q01DX009 (ip), vehicle: Klucel (hydroxypropylcellulose) (HPC) 96 % of control | dose: 50.0 mg/kg/injection, schedule: Q04DX002 (ip), vehicle: Klucel (hydroxypropylcellulose) (HPC) 104 % of control | dose: 100.0 mg/kg/injection, schedule: Q01DX005 (ip), vehicle: Klucel (hydroxypropylcellulose) (HPC) 97 % of control

COC1OC(CBr)C(Br)C(OC(=O)c2ccccc2)C1OC(=O)c1ccccc1 (centres undefined)
inactive: dose: 75.0 mg/kg/injection, schedule: Q04DX002 (ip), vehicle: Klucel (hydroxypropylcellulose) (HPC) 103 % of control | dose: 150.0 mg/kg/injection, schedule: Q04DX002 (ip), vehicle: Klucel (hydroxypropylcellulose) (HPC) 98 % of control | dose: 300.0 mg/kg/injection, schedule: Q04DX002 (ip), vehicle: Klucel (hydroxypropylcellulose) (HPC) 98 % of control

O=Cc1c[nH]c2ccccc12
inactive: [11] 104 % of control | dose: 100.0 mg/kg/injection, schedule: Q01DX009 (ip), vehicle: Klucel (hydroxypropylcellulose) (HPC) 103 % of control | [14] 110 % of control | [12] 98 % of control | dose: 200.0 mg/kg/injection, schedule: Q01DX009 (ip), vehicle: Klucel (hydroxypropylcellulose) (HPC) 102 % of control | [15] 105 % of control | [13] 97 % of control | dose: 400.0 mg/kg/injection, schedule: Q01DX009 (ip), vehicle: Klucel (hydroxypropylcellulose) (HPC) 107 % of control | [16] 98 % of control

CN(C)c1ccc(CNc2ccc(Cl)cc2)cc1
inactive: [14] 91 % of control | [15] 89 % of control | [16] 93 % of control

COC(OC)C1=C(Cl)C(Cl)=C(Cl)/C1=N\Nc1ccccc1
inactive: [14] 109 % of control | [15] 98 % of control | [16] 100 % of control

O=C1C(Cl)=C(N2CC2)C(=O)C(Cl)=C1N1CC1
inactive: dose: 0.31 mg/kg/injection, schedule: Q01DX009 (ip), vehicle: alcohol 106 % of control | dose: 0.62 mg/kg/injection, schedule: Q01DX009 (ip), vehicle: alcohol 112 % of control | dose: 1.25 mg/kg/injection, schedule: Q01DX009 (ip), vehicle: alcohol 106 % of control | dose: 1.25 mg/kg/injection, schedule: Q01DX009 (ip), vehicle: saline 113 % of control | dose: 2.5 mg/kg/injection, schedule: Q01DX009 (ip), vehicle: alcohol 112 % of control | dose: 5.0 mg/kg/injection, schedule: Q01DX009 (ip), vehicle: alcohol 118 % of control | dose: 10.0 mg/kg/injection, schedule: Q01DX009 (ip), vehicle: saline 114 % of control
